Experimental data from publication PMC7044277 (Nature Communications, 2020).
Where “and” joins values, the source holds several entries; their conditions need not be identical. Equal entries are not always repeated.

How the values were obtained:
Type in all cases: cell-based
320 non-olfactory GPCRs [1] = biological target: T1, 320 non-olfactory GPCRs (Homo sapiens, UniProt Q8IZF3)
T1 construct: expressed in transfected cells; host or cells: HTLA cells

320 non-olfactory GPCRs [2] = biological target: T2, 320 non-olfactory GPCRs (Homo sapiens, UniProt P41968); conditions: receptor MC3Rb; replicate values, Fig_4g
T2 construct: expressed in transfected cells; host or cells: HTLA cells
T2 sequence (P41968 whole entry): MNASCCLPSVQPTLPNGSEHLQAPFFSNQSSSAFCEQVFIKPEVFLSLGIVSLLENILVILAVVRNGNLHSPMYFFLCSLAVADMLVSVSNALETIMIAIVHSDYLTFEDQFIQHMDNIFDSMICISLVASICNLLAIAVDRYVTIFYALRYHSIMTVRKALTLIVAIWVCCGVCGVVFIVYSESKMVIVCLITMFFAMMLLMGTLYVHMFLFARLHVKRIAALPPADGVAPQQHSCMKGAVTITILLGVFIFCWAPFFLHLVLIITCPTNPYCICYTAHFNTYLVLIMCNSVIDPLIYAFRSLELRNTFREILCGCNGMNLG

320 non-olfactory GPCRs [3] = biological target: T3, 320 non-olfactory GPCRs (Homo sapiens, UniProt P43088); conditions: receptor PTGFR; replicate values, Fig_4g
T3 construct: expressed in transfected cells; host or cells: HTLA cells
T3 sequence (P43088 whole entry): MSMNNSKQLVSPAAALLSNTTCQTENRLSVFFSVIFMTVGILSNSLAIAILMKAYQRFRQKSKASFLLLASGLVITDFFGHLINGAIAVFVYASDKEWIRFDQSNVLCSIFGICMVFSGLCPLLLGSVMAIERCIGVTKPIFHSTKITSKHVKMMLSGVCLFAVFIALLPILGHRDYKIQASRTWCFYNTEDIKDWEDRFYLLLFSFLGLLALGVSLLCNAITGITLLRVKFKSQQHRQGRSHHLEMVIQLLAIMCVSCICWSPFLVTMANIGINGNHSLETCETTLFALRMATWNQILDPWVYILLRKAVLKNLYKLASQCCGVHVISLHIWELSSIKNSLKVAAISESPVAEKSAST

320 non-olfactory GPCRs [4] = biological target: 320 non-olfactory GPCRs (Homo sapiens, UniProt P25025)
Chain of 320 non-olfactory GPCRs (Homo sapiens, UniProt P25025) (P25025 whole entry): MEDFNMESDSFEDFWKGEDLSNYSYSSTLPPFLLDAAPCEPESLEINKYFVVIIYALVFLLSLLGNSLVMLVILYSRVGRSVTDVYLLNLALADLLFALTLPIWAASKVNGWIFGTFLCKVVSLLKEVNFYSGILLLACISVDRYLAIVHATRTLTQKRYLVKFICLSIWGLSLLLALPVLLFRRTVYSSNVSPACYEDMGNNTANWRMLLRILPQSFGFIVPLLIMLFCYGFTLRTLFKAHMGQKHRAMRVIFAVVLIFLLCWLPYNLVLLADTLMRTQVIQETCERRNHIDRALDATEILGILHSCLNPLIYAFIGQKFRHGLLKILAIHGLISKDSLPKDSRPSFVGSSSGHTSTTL
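Wherever Fold of Basal is given: compound tested at 1 µM final concentration.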
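Wherever GPCRome agonism screen response is given: fold over basal response of each receptor without drug.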

T1 sequence (Q8IZF3 22-695): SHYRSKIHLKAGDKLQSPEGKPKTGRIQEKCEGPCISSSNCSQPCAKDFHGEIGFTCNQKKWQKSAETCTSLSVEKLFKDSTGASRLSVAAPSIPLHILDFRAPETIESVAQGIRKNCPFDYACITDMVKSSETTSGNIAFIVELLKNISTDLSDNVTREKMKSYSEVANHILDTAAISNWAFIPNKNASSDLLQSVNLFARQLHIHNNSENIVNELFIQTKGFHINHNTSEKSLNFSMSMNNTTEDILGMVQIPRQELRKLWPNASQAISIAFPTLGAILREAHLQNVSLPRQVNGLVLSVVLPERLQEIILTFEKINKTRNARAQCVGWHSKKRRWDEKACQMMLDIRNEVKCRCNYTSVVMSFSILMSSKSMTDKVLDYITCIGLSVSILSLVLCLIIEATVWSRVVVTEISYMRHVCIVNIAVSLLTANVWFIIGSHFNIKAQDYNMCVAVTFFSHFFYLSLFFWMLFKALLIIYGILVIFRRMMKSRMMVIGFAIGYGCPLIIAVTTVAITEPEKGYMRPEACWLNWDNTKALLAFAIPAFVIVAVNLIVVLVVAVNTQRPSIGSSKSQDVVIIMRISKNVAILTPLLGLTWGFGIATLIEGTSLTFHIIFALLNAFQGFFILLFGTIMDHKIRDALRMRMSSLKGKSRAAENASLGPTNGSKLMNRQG

In the case of CCOc1cccc2cc(C(C)NCC3(O)CCCCC3)oc12 (stereo not shown) [O4LE6], the “Fold of Basal” value (320 non-olfactory GPCRs [1]) is reported as 1.314 and 0.8065 and 0.6945, the “GPCRome agonism screen response” value (320 non-olfactory GPCRs [2]) is reported as 1.102 and 1.23 and 1.725 and 1.228 and the “GPCRome agonism screen response” value (320 non-olfactory GPCRs [3]) is reported as 0.453 and 1.129 and 0.3537 and 0.6778. The “Fold of Basal” value (320 non-olfactory GPCRs [4]) was 1.166 and 1.131 and 0.9959 and 1.015.
